Test results reported in patent US12084426B2, “Indazole carboxamides as kinase inhibitors” (BRISTOL-MYERS SQUIBB COMPANY, priority 2018, dated 2024).

system: MLKL phosphorylation in HT29-L23 human colorectal adenocarcinoma cells; experiment: MLKL Phosphorylation High-Content Assay; type: cell-based; conditions: Homo sapiens, 6 h, necroptosis induced with TNFα, SMAC mimetic and Z-VAD, read-out: pMLKL (IC50)
Method: MLKL Phosphorylation High-Content Assay
HT29-L23 human colorectal adenocarcinoma cells were maintained in RPMI 1640 medium containing 10% heat-inactivated FBS, 1% Penicillin-Streptomycin and 10 mM HEPES. Cells were seeded at 2,000 cells/well in 384 well tissue culture-treated microplates (Greiner #781090-3B) and incubated at 37° C. (5% CO2/95% O2) for 2 d. On the day of the assay, the cells were treated with test compounds at final concentrations of 6.25 to 0.106 μM for 30 min at 37° C. (5% CO2/95% O2). Necroptosis was induced using a mixture of human TNFα (35 ng/mL) (Peprotech #300-01A), SMAC mimetic (from US 2015/0322111 A1) (700 nM) and Z-VAD (140 nM) (BD pharmingen #51-6936). Following 6 h incubation at 37° C. (5% CO2/95% O2), the cells were fixed with 4% formaldehyde (ACROS 11969-0010) for 15 min at rt, then permeabilized with phosphate buffered saline (PBS) containing 0.2% Triton-X-100 for 10 min. MLKL phosphorylation was detected using anti-MLKL (phospho S358) antibody (Abcam #ab187091) (1:1000 dilution in Blocking Buffer [PBS supplemented with 0.1% BSA]) with ON incubation at 4° C. After washing three times in PBS, goat anti-rabbit Alexa-488 (1:1000 dilution) (Life Technologies, A11008) and Hoechst 33342 (Life Technologies, H3570) (1:2000 dilution) in Blocking Buffer were added for 1 h at rt. Following another three cycles of washes in PBS, the microplates were sealed, and cellular images were acquired in the Cellomics ArrayScan VTI high-content imager equipped with an X1 camera. Fluorescent images were taken using a 10× objective and the 386-23 BGRFRN_BGRFRN and 485-20 BGRFRN_BGRFRN filter sets, for nuclei and MLKL phosphorylation, respectively. The image sets were analyzed using the Compartmental Analysis Bioapplication software (Cellomics). The level of MLKL phosphorylation was quantified as MEAN_CircRingAvgIntenRatio. The maximal inhibitory response was defined by the activity induced by Necls (CAS #: 852391-15-2, 6.25 μM). The IC50 value was defined as the concentration of compound that produces 50% of the maximal inhibition. The data were fitted using the 4-parameter logistic equation to calculate the IC50 and Ymax values.

Compound | IC50
CNC(=O)c1n[nH]c2cc(N3CCCC(C(=O)NCc4ccccc4Oc4ccccc4)C3)ccc12 (racemic) [Example 8, N-methyl-6-(3-{ [(2-phenoxyphenyl)methyl]carbamoyl}piperidin-1-yl)-1H-indazole-3-carboxamide] | 110 nM
CNC(=O)c1n[nH]c2cc(N3CCCC(C(=O)NCCCOC4CCCCC4)C3)ccc12 (racemic) [Example 9, 6-(3-{[3-(cyclohexyloxy)propyl]carbamoyl}piperidin-1-yl)-N-methyl-1H-indazole-3-carboxamide] | 3500 nM
CNC(=O)c1n[nH]c2cc(N3CCCC(C(=O)NCc4ccccc4OCC4CC4)C3)ccc12 (racemic) [Example 12, 6-[3-({[2-(cyclopropylmethoxy)phenyl]methyl}carbamoyl)piperidin-1-yl]-N-methyl-1H-indazole-3-carboxamide] | 290 nM
CNC(=O)c1n[nH]c2cc(N3CCOC(C(=O)Nc4cnn(Cc5ccccc5)c4)C3)ccc12 (racemic) [Example 21, 6-{2-[(1-benzyl-1H-pyrazol-4-yl)carbamoyl]morpholin-4-yl}-N-methyl-1H-indazole-3-carboxamide] | 1200 nM
CNC(=O)c1n[nH]c2cc(N3CCCC(C(=O)NCC(O)COc4ccccc4)C3)ccc12 (single isomer, unassigned) [Example 6, 6-{3-[(2-hydroxy-3-phenoxypropyl)carbamoyl]piperidin-1-yl}-N-methyl-1H-indazole-3-carboxamide] | 4300 nM
CNC(=O)c1n[nH]c2cc(N3CCCC(C(=O)NC4CCCC(c5ccccc5)C4)C3)ccc12 (single isomer, unassigned) [Example 15, N-methyl-6-{3-[(3-phenylcyclohexyl)carbamoyl]piperidin-1-yl}-1H-indazole-3-carboxamide] | 1900 nM
CNC(=O)c1n[nH]c2cc(N3CCCC(C(=O)NCc4ccccc4OC(F)(F)F)C3)ccc12 (centres unmarked) [Example 1, N-methyl-6-[3-({[2-(trifluoromethoxy)phenyl]methyl}carbamoyl)piperidin-1-yl]-1H-indazole-3-carboxamide] | 660 nM
CNC(=O)c1n[nH]c2cc(N3CCN(C)C(C(=O)NCc4ccccc4OC)C3)ccc12 (centres unmarked) [Example 2, 6-(3-{[(2-methoxyphenyl)methyl]carbamoyl}-4-methylpiperazin-1-yl)-N-methyl-1H-indazole-3-carboxamide] | > 6200 nM
CNC(=O)c1n[nH]c2cc(N3CCOC(C(=O)NCCC(O)c4ccc(F)c(F)c4)C3)ccc12 (centres unmarked) [Example 3, 6-(2-{[3-(3,4-difluorophenyl)-3-hydroxypropyl]carbamoyl}morpholin-4-yl)-N-methyl-1H-indazole-3-carboxamide] | 4300 nM
CNC(=O)c1n[nH]c2cc(N3CCNC(C(=O)NCCC(C)c4ccccc4)C3)ccc12 (centres unmarked) [Example 4, N-methyl-6-{3-[(3-phenylbutyl)carbamoyl]piperazin-1-yl}-1H-indazole-3-carboxamide] | 3200 nM
CNC(=O)c1n[nH]c2cc(C3CCCN(C(=O)NCCC(C)c4ccccc4)C3)ccc12 (centres unmarked) [Example 5, N-methyl-6-{1-[(3-phenylbutyl)carbamoyl]piperidin-3-yl}-1H-indazole-3-carboxamide] | 190 nM
CNC(=O)c1n[nH]c2cc(N3CCCC(C(=O)NCCC(O)c4ccccc4)C3)ccc12 (centres unmarked) [Example 10, 6-{3-[(3-hydroxy-3-phenylpropyl)carbamoyl]piperidin-1-yl}-N-methyl-1H-indazole-3-carboxamide] | 3600 nM
CNC(=O)c1n[nH]c2cc(N3CCCC(C(=O)NCCC(O)c4ccc(F)c(F)c4)C3)ccc12 (centres unmarked) [Example 14, 6-(3-{[3-(3,4-difluorophenyl)-3-hydroxypropyl]carbamoyl}piperidin-1-yl)-N-methyl-1H-indazole-3-carboxamide] | 2400 nM
CNC(=O)c1n[nH]c2cc(N3CCCC(C(=O)NCCC(C)c4ccccc4)C3)ccc12 (centres unmarked) [Example 17, N-methyl-6-{3-[(3-phenylbutyl)carbamoyl]piperidin-1-yl}-1H-indazole-3-carboxamide] | 200 nM
CNC(=O)c1n[nH]c2cc(N3CCN(C)C(C(=O)NCCC(O)c4ccccc4)C3)ccc12 (centres unmarked) [Example 18, 6 6-{3-[(3-hydroxy-3-phenylpropyl)carbamoyl]-4-methylpiperazin-1-yl}-N-methyl-1H-indazole-3-carboxamide] | 2400 nM
CNC(=O)c1n[nH]c2cc(N3CCN(C)C(C(=O)NCCC(C)c4ccc(F)cc4)C3)ccc12 (centres unmarked) [Example 19, 6-(3-{[3-(4-fluorophenyl)butyl]carbamoyl}-4-methylpiperazin-1-yl)-N-methyl-1H-indazole-3-carboxamide] | 690 nM
CNC(=O)c1n[nH]c2cc(N3CCN(C)C(C(=O)NCCC(C)c4ccccc4)C3)ccc12 (centres unmarked) [Example 20, N-methyl-6-{4-methyl-3-[(3-phenylbutyl)carbamoyl]piperazin-1-yl}-1H-indazole-3-carboxamide] | 2300 nM
CNC(=O)c1n[nH]c2cc(N3CCOC(C(=O)NCCC(C)c4ccccc4)C3)ccc12 (centres unmarked) [Example 22, N-methyl-6-{2-[(3-phenylbutyl)carbamoyl]morpholin-4-yl}-1H-indazole-3-carboxamide] | 440 nM
CNC(=O)c1n[nH]c2cc(N3CCOC(C(=O)NCC4CC4c4cccc(F)c4)C3)ccc12 (centres unmarked) [Example 23] | 1600 nM
CNC(=O)c1n[nH]c2cc(N3CCOC(C(=O)NCCC(C)c4ccc(F)cc4)C3)ccc12 (centres unmarked) [Example 24, 6-(2-{[3-(4-fluorophenyl)butyl]carbamoyl}morpholin-4-yl)-N-methyl-1H-indazole-3-carboxamide] | 110 nM
CNC(=O)c1n[nH]c2cc(N3CCOC(C(=O)NCCC(O)c4ccc(Cl)cc4)C3)ccc12 (centres unmarked) [Example 25, 6-(2-{[3-(4-chlorophenyl)-3-hydroxypropyl]carbamoyl}morpholin-4-yl)-N-methyl-1H-indazole-3-carboxamide] | 4500 nM
CNC(=O)c1n[nH]c2cc(N3CCOC(C(=O)NC4CCCC(c5ccccc5)C4)C3)ccc12 (centres unmarked) [Example 26, N-methyl-6-{2-[(3-phenylcyclohexyl)carbamoyl]morpholin-4-yl}-1H-indazole-3-carboxamide] | 2500 nM

same assay, conditions: necroptosis induced with TNFα, SMAC mimetic and Z-VAD, 6 h, read-out: pMLKL (IC50)

Compound | IC50
CNC(=O)c1n[nH]c2cc(N3CCCC(C(=O)NC4CCCC(c5ccccc5)C4)C3)ccc12 (racemic) [Example 16, N-methyl-6-{3-[(3-phenylcyclohexyl)carbamoyl]piperidin-1-yl}-1H-indazole-3-carboxamide] | 3100 nM
CNC(=O)c1n[nH]c2cc(N3CCCC(C(=O)NCC(O)COc4ccccc4)C3)ccc12 (single isomer, unassigned) [Example 7, 6-{3-[(2-hydroxy-3-phenoxypropyl)carbamoyl]piperidin-1-yl}-N-methyl-1H-indazole-3-carboxamide] | 2200 nM
CNC(=O)c1n[nH]c2cc(N3CCCC(C(=O)Nc4cnn(Cc5ccccc5)c4)C3)ccc12 (centres unmarked) [Example 11, 6-{3-[(1-benzyl-1H-pyrazol-4-yl)carbamoyl]piperidin-1-yl}-N-methyl-1H-indazole-3-carboxamide] | 2500 nM
CNC(=O)c1n[nH]c2cc(N3CCCC(C(=O)NCCCOc4ccc(F)cc4)C3)ccc12 (centres unmarked) [Example 13, 6-(3-{[3-(4-fluorophenoxy)propyl]carbamoyl}piperidin-1-yl)-N-methyl-1H-indazole-3-carboxamide] | 3200 nM
